TGI and GI50 data for 13 compounds are collected here from PubChem BioAssay (NCI).

Structures are written as SMILES. Values joined by “and” are separate entries in the source; they are usually repeats but may differ in a detail not shown here. Equal entries are not always repeated.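 Values below derive from 48-hour exposures of cells grown in 96-well plates, with endpoints linearly interpolated between the two concentrations bracketing the appropriate inhibition level. The concentration for 50% growth inhibition is given as GI50. TGI denotes the concentration required for complete inhibition of growth.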

Among the test systems are NCI-H23 lung; M14 melanoma; HT29 colon; SR leukemia; SF-268 CNS; MDA-MB-435; SK-OV-3 ovarian; BT-549 breast; SK-MEL-28 melanoma; SW-620 colon.
Holding throughout (test): growth of human tumour cells (NCI), 48 h

With `COc1ccccc1N=Nc1c(O)ccc2ccccc12`, the TGI with NCI-H23 lung, in the assay with M14 melanoma, with HT29 colon, in the assay with SR leukemia, in the assay with SF-268 CNS and with MDA-MB-435 was > 100 µM each time. In addition, the TGI was 29.5 µM and 38.3 µM in the assay with SK-OV-3 ovarian; > 100 µM in the assay with BT-549 breast; > 100 µM in the assay on SK-MEL-28 melanoma; > 100 µM in the assay on SW-620 colon. In addition, the GI50 with M14 melanoma is 33.6 µM and 85 µM.

As for `COc1cc2c(cc1O)NC(=O)[C@@H]1C[C@@H](O)CN1C2=O`, the TGI in the assay on NCI-H23 lung, in the assay on M14 melanoma, in the assay with HT29 colon, in the assay with SR leukemia, with SF-268 CNS and in the assay with MDA-MB-435 was > 100 µM throughout. Moreover, the TGI with SK-OV-3 ovarian, with BT-549 breast, with SK-MEL-28 melanoma and in the assay with SW-620 colon was > 100 µM throughout.

For the compound `COc1ccc(O[C@H](CO)C[C@@H]2COC(C)(C)O2)cc1`, the TGI in the assay on NCI-H23 lung, with M14 melanoma, in the assay with HT29 colon, in the assay with SR leukemia, in the assay with SF-268 CNS and in the assay with MDA-MB-435 was > 100 µM in each case. For the same compound, the TGI in the assay on SK-OV-3 ovarian, in the assay with BT-549 breast, in the assay with SK-MEL-28 melanoma and in the assay on SW-620 colon was > 100 µM each time.

Consider `CCCCCCCCCCCC1=C(O)C(=O)C(CC2=C(O)C(=O)C(CCCCCCCCCCC)=C(O)C2=O)=C(O)C1=O`, for which the TGI is > 100 µM in the assay on NCI-H23 lung; > 100 µM with M14 melanoma; > 100 µM with HT29 colon; 42.4 µM in the assay on SR leukemia; > 100 µM with SF-268 CNS; > 100 µM in the assay on MDA-MB-435. Further, the TGI in the assay with SK-OV-3 ovarian, with BT-549 breast, with SK-MEL-28 melanoma and with SW-620 colon was > 100 µM throughout.

As for `O=C(Nc1cccc2ccccc12)c1cc2ccccc2oc1=O`, the TGI with NCI-H23 lung, in the assay with M14 melanoma, in the assay with HT29 colon, in the assay on SR leukemia, with SF-268 CNS and in the assay with MDA-MB-435 was > 100 µM each time. In addition, the TGI in the assay with SK-OV-3 ovarian, in the assay on BT-549 breast, in the assay with SK-MEL-28 melanoma and with SW-620 colon was > 100 µM in each case.

On to `CCCCCCCCCCCCCCCCNc1nc(=O)n(C2OC(C)C(O)C2O)cc1F` (stereo not drawn), for which the TGI with NCI-H23 lung is 32.7 µM; in the assay with M14 melanoma it was 33.5 µM; in the assay on HT29 colon, 31.2 µM; in the assay with SR leukemia it was > 100 µM; with SF-268 CNS, 44.5 µM; in the assay on MDA-MB-435, 30.5 µM. For the same compound, the TGI turned out to be 37.4 µM in the assay on SK-OV-3 ovarian, 35.1 µM with BT-549 breast, 37.5 µM in the assay on SK-MEL-28 melanoma and 46.8 µM in the assay on SW-620 colon.

For the compound `C/C(=N\NC(=S)NC(C)(C)C)c1nc2ncccc2[nH]1`, the TGI in the assay with NCI-H23 lung is > 100 µM; in the assay on M14 melanoma, > 100 µM; with HT29 colon it was > 100 µM; in the assay with SR leukemia, > 72.2 µM; in the assay with SF-268 CNS it was > 31.6 µM; with MDA-MB-435 it was > 78.4 µM. For the same compound, the TGI in the assay with SK-OV-3 ovarian was 12.6 µM; in the assay with BT-549 breast, 20.3 µM; in the assay with SK-MEL-28 melanoma it was > 100 µM; in the assay with SW-620 colon, > 100 µM.

As for `NC(=O)CSc1nc2ccccc2c(=O)n1N`, the TGI in the assay on NCI-H23 lung, with M14 melanoma, in the assay on HT29 colon, with SR leukemia, with SF-268 CNS and with MDA-MB-435 was > 100 µM throughout. The TGI with BT-549 breast, with SK-MEL-28 melanoma and with SW-620 colon was > 100 µM throughout.

In the case of `CC[C@]1(c2ccc3c(c2)OCO3)C=[N+]([O-])O[C@H](OC2CCCC2(c2ccccc2)c2ccccc2)[C@@H]1OC(C)=O` (stereo partly drawn), the TGI with NCI-H23 lung is 8.68 µM; in the assay with M14 melanoma, 4.84 µM; in the assay with HT29 colon, 3.78 µM; with SR leukemia, > 21.7 µM; in the assay on SF-268 CNS, 6.64 µM; in the assay with MDA-MB-435 it was 4.1 µM. Moreover, the TGI in the assay on SK-OV-3 ovarian was 14.4 µM; in the assay with BT-549 breast, 8.43 µM; with SW-620 colon, > 100 µM.

Turning to `CN(Cc1cnc2nc(N)nc(N)c2n1)c1ccc(C(=O)NC(CCC(=O)O)C(=O)O)c2ccccc12` (stereo not drawn), the TGI in the assay with NCI-H23 lung, in the assay with M14 melanoma, with HT29 colon, in the assay with SR leukemia, in the assay with SF-268 CNS and in the assay on MDA-MB-435 was > 1000 µM throughout. Moreover, the TGI with SK-OV-3 ovarian, with BT-549 breast and in the assay with SW-620 colon was > 1000 µM throughout. For the same compound, the GI50 in the assay with SK-OV-3 ovarian was 55.3 µM; in the assay with BT-549 breast it was > 1000 µM; with SK-MEL-28 melanoma it was 0.0616 µM.

For the compound `COc1ccc(S(=O)(=O)NC(CCC(=O)NC(N)=O)C(=O)NC(N)=O)cc1` (stereo not drawn), the TGI in the assay on NCI-H23 lung, in the assay with M14 melanoma, in the assay with HT29 colon, in the assay on SR leukemia, with MDA-MB-435 and in the assay on SK-OV-3 ovarian was > 100 µM each time. The TGI in the assay on BT-549 breast, with SK-MEL-28 melanoma and in the assay with SW-620 colon was > 100 µM throughout.

As for `COc1ccc2oc(=O)c(-c3cc4c(c(C)n3)c(=O)oc3ccc(OC)cc34)cc2c1`, the TGI in the assay with NCI-H23 lung, with M14 melanoma, in the assay on HT29 colon, in the assay with SR leukemia, in the assay with SF-268 CNS and in the assay on MDA-MB-435 was > 100 µM throughout. For the same compound, the TGI in the assay on SK-OV-3 ovarian, in the assay with BT-549 breast, with SK-MEL-28 melanoma and in the assay with SW-620 colon was > 100 µM throughout.

With `CC(C)(NO)/C(=N\O)c1ccccc1`, the TGI with NCI-H23 lung, with M14 melanoma, with HT29 colon, in the assay with SR leukemia, in the assay on SF-268 CNS and in the assay on MDA-MB-435 was > 10 µM each time. Further, the TGI with BT-549 breast and in the assay on SW-620 colon was > 10 µM throughout.
